From patent US7037919B1, “Tetrahydroquinoline derivatives” (Kaken Pharmaceutical Co. Ltd., priority 1999, dated 2006)

Columns and labels:
[1] = test system: orchiectomized (ORX) rats; assay: Action of increasing prostate weight and bone mineral density in orchiectomized (ORX) rats (Test Example 4); assay type: in vivo, rat; details: 10 mg/kg s.c. once daily, 5 days weekly, 4 weeks, ORX SD rats, Mean ± SD
Experimental: Action of Increasing Prostate Weight and Bone Mineral Density in Orchiectomized (ORX) Rats
Orchiectomy was performed in 12-week-old male SD rats. From the next day postoperation, the positive control compound dihydrotestosterone (DHT, 10 mg/kg) and the compound of the present invention (Example 60, 60 mg/kg), each dissolved in a 5% dimethyl sulfoxide-containing olive oil solution, were subcutaneously injected once daily, 5 days weekly, for 4 weeks. On the next day after final administration, the wet weight of the ventral prostate was measured to evaluate the AR agonistic effect of the compound of the present invention. On the next day following final administration, moreover, the right femur was removed, and fixed overnight in a 10% neutrally buffered formalin solution. Then, the bone mineral density at the site ranging from the diaphysis to the proximal end was measured by the method of double energy X-ray absorption using a bone mineral content-measuring machine (Aloka, DCS-600) to evaluate increasing action of bone mineral density of the compound of the present invention.

[2] = target: T1, Rat androgen receptors (rat AR) (Rattus norvegicus, UniProt P15207); assay: Test for competitive binding to rat androgen receptors; details: 3H-testosterone, rat prostate AR fraction; hydroxyflutamide taken as 100
T1 construct: from tissue; host or cells: prostate of orchiectomized male SD rats (100,000 x g supernatant)
T1 sequence (P15207 1-902): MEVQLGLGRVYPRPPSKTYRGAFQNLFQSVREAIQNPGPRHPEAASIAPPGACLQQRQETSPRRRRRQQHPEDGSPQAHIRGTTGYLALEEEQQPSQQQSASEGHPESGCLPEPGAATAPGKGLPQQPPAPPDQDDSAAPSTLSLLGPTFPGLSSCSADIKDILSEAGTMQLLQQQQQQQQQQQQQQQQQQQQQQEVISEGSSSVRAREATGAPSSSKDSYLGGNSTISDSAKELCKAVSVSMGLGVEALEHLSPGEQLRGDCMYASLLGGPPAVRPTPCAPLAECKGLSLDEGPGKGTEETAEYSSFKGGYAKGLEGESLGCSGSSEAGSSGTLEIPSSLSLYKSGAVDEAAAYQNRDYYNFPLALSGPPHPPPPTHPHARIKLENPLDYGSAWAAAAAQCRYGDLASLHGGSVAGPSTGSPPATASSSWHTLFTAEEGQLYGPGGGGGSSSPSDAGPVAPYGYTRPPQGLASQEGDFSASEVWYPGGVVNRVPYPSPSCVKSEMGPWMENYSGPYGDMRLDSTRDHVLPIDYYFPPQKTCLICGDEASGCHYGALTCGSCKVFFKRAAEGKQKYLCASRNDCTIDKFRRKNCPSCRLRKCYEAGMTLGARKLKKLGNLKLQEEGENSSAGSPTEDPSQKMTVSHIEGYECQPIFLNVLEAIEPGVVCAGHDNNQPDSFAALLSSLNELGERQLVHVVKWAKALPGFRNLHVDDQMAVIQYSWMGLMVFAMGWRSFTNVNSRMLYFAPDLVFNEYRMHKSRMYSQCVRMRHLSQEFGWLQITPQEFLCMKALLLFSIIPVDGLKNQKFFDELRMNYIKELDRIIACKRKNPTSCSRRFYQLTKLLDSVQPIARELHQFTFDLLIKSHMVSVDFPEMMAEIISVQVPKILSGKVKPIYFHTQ
Experimental: Test for Competitive Binding to Rat Androgen Receptors (Rat AR)
Preparation of rat AR fraction: Prostates were harvested into ice-cooled ET buffer (10 mM Tris, 1 mM EDTA, 5 mM DTT, 10 mM sodium molybdate, pH 7.4) 3 days after orchiectomy in 11-week-old male SD rats. The prostate was finely cut, and ET buffer was added, whereafter the mixture was homogenized using a homogenizer. The homogenate was ultracentrifuged (100,000×g, 60 min, 4° C.), and the supernatant was used as a rat AR fraction (hereinafter referred to as ARF).
Binding test: ^3H-testosterone (hereinafter referred to as ^3H-T) was diluted with ET buffer. Dihydrotestosterone (DHT) was prepared so as to have a concentration (final concentration 1 μM) 400 times the maximum concentration of ^3H-T (2.5 nM). The ^3H-T solution was added to a 1.5 ml tube containing DHT, no DHT, or the test compound with a varying concentration. Further, 200 μg ARF was added to adjust the final volume to 100 μl. The mixture was incubated for 2 hours at 4° C., and then 300 μl of a 0.05% dextran T70-1.0% activated carbon solution was added. The mixture was further incubated for 15 minutes in ice to remove the free ^3H-T. After centrifugation (4° C., 2,500 rpm, 5 min), 275 μl of the supernatant was harvested into a liquid scintillation vial, and 2 ml of clear-sol was added. The mixture was stirred, allowed to stand, and measured for ^3H radioactivity with a liquid scintillation counter.
Calculation of the relative binding inhibition rate: The binding inhibition rate (%) of the compound according to the present invention was calculated from the following equation, and the 50% inhibition concentration (IC50) was calculated by the probit analysis of the concentration-binding inhibition curve.
The relative binding inhibition rate (RBA: Relative Binding Affinity) was obtained from the following equation (Endocrinology 138, 863-870, 1997): RBA=100×(IC50 of hydroxyflutamide)/(IC50 of the compound of the present invention) • RBA's of the compounds of the present invention, calculated as above, are shown in Table 10.

orchiectomized rats = assay: Action of increasing prostate weight in orchiectomized rats (Test Example 2, printed 21); assay type: in vivo, rat; details: for Weight of prostate: orchiectomized SD rats, Mean ± SD
Experimental: Action of Increasing Prostate Weight in Orchiectomized Rats
Testes were removed from 8- to 12-week-old male SD rats. From 5 days postoperation, the compound of the present invention (3, 30 mg/kg), suspended in a 0.5% methyl cellulose solution, was subcutaneously injected once daily for a consecutive week, and 6 days weekly for 8 consecutive weeks. On the next day after final administration, the wet weight of the ventral prostate was measured to evaluate the in vivo AR agonistic effect of the compound of the present invention.

AR = assay: Assignment of compounds as having AR agonistic or AR antagonistic action (description, no method given); details: compounds named as usable for category A diseases
[3] = test system: orchiectomized (ORX) rats; assay: Action of increasing prostate weight in orchiectomized (ORX) rats (Test Example 3); assay type: in vivo, rat; details: 30 mg/kg s.c. once daily for 8 days, ORX SD rats, Mean ± SD
Experimental: Action of Increasing Prostate Weight in Rats After Orchiectomized (ORX) Rats
Orchiectomy was performed in 8-week-old male SD rats. From 5 days postoperation, the compound of the present invention (Example 60, 30 mg/kg), dissolved in a 5% dimethyl sulfoxide-containing olive oil solution, was subcutaneously injected once daily for 8 days. On the next day after final administration, the wet weight of the ventral prostate was measured to evaluate the AR agonistic effect of the compound of the present invention.

| Structure (SMILES) | RBA (Relative Binding Affinity = 100 x IC50 of hydroxyflutamide / IC50 of the compound) [2] | other results |
| --- | --- | --- |
| C[C@]12CCC(=O)C[C@@H]1CC[C@@H]1[C@@H]2CC[C@]2(C)[C@@H](O)CC[C@@H]12 [DHT, dihydrotestosterone, reference compound] |  | Prostate weight [1]: 150 ± 14 mg/body weight 100 g; Bone mineral density ([1]; right femur): 131 ± 7 mg/cm^2 |
| CC(C)(CO)C1Nc2ccc([N+](=O)[O-])cc2C2C=CCC21 (stereo not drawn) [Example 1, 2-methyl-2-(8-nitro-3a,4,5,9b-tetrahydro-3H-cyclopenta[c]quinolin-4-yl)-propan-1-ol] | 4751 | Weight of prostate (orchiectomized rats; 1-week treatment, 3 mg/kg s.c. once daily): 18 ± 4 mg/body weight (100 g); Weight of prostate (orchiectomized rats; 1-week treatment, 30 mg/kg s.c. once daily): 26 ± 3 mg/body weight (100 g); Weight of prostate (orchiectomized rats; 8-week treatment, 3 mg/kg s.c. 6 days weekly): 52 ± 8 mg/body weight (100 g); Weight of prostate (orchiectomized rats; 8-week treatment, 30 mg/kg s.c. 6 days weekly): 97 ± 14 mg/body weight (100 g); Prostate weights in comparison with the comparative example (orchiectomized rats; consecutively administered for 1 week (3, 30 mg/kg s.c.)): significantly increased prostate weights; Prostate weight relative to normal control (orchiectomized rats; duration of treatment extended to 8 weeks (3, 30 mg/kg s.c.)): restored the atrophied prostate up to the level of the normal control; AR agonistic action (AR): AR agonistic action |
| CC(C)(CO)C1Nc2cccc([N+](=O)[O-])c2C2C=CCC21 (stereo not drawn) [Example 7] | 65 |  |
| COC(C)(C)C1Nc2ccc([N+](=O)[O-])cc2C2C=CCC21 (stereo not drawn) [Example 19] | 57 |  |
| CC(C)(OCc1ccccc1)C1Nc2ccc([N+](=O)[O-])cc2C2C=CCC21 (stereo not drawn) [Example 21] | 74 |  |
| CC(=O)OCC(C)(C)C1Nc2ccc([N+](=O)[O-])cc2C2C=CCC21 (stereo not drawn) [Example 23] |  | AR agonistic action (AR): AR agonistic action |
| CC(C)(C)OC(=O)NCC(C)(C)C1Nc2ccc([N+](=O)[O-])cc2C2C=CCC21 (stereo not drawn) [Example 25] |  | AR agonistic action (AR): AR agonistic action |
| CC(C)(CCl)C1Nc2ccc([N+](=O)[O-])cc2C2C=CCC21 (stereo not drawn) [Example 29] | 75 |  |
| CC(C)(CO)C1Nc2ccc(C#N)cc2C2C=CCC21 (stereo not drawn) [Example 35, 4-(2-Hydroxy-1,1′-dimethyl-ethyl)-3a,4,5,9b-tetrahydro-3H-cyclopenta[c]quinoline-8-carbonitrile] | 236 |  |
| CC(=O)OCC(C)(C)C1Nc2ccc(C#N)cc2C2C=CCC21 (stereo not drawn) [Example 40, acetic acid 2-(8-cyano-3a,4,5,9b-tetrahydro-3H-cyclopentatc[c]quinolin-4-yl)-2-methylpropyl ester] | 96 |  |
| CC(=O)NCC(C)(C)C1Nc2ccc([N+](=O)[O-])cc2C2C=CCC21 (stereo not drawn) [Example 52] | 478 |  |
| CC(C)C(=O)NCC(C)(C)C1Nc2ccc([N+](=O)[O-])cc2C2C=CCC21 (stereo not drawn) [Example 53] | 55 |  |
| CC(C)(CNC(=O)c1ccccc1)C1Nc2ccc([N+](=O)[O-])cc2C2C=CCC21 (stereo not drawn) [Example 56] |  | AR agonistic action (AR): AR agonistic action |
| CC(C)(CNS(C)(=O)=O)C1Nc2ccc([N+](=O)[O-])cc2C2C=CCC21 (stereo not drawn) [Example 59] | 2288 |  |
| CC(C)(CNS(=O)(=O)c1ccc(F)cc1)C1Nc2ccc([N+](=O)[O-])cc2C2C=CCC21 (stereo not drawn) [Example 61] | 169 |  |
| CC(=O)Nc1ccc(S(=O)(=O)NCC(C)(C)C2Nc3ccc([N+](=O)[O-])cc3C3C=CCC32)cc1 (stereo not drawn) [Example 63] | 580 |  |
| CC(C)NC(=O)NCC(C)(C)C1Nc2ccc([N+](=O)[O-])cc2C2C=CCC21 (stereo not drawn) [Example 64, 1-isopropyl-3-[2-methyl-2-(8-nitro-3a,4,5,9b-tetrahydro-3H-cyclopenta[c]quinolin-4-yl)-propyl]urea] | 298 |  |
| Cc1cccc(NC(=O)NCC(C)(C)C2Nc3ccc([N+](=O)[O-])cc3C3C=CCC32)c1 (stereo not drawn) [Example 65] |  | AR agonistic action (AR): AR agonistic action |
| CC(C)(CNC(=O)Nc1ccc([N+](=O)[O-])cc1)C1Nc2ccc([N+](=O)[O-])cc2C2C=CCC21 (stereo not drawn) [Example 66] |  | AR agonistic action (AR): AR agonistic action |
| CNC(=S)NCC(C)(C)C1Nc2ccc([N+](=O)[O-])cc2C2C=CCC21 (stereo not drawn) [Example 67] |  | AR agonistic action (AR): AR agonistic action |
| CCNC(=S)NCC(C)(C)C1Nc2ccc([N+](=O)[O-])cc2C2C=CCC21 (stereo not drawn) [Example 68] | 491 |  |
| CC(C)NC(=S)NCC(C)(C)C1Nc2ccc([N+](=O)[O-])cc2C2C=CCC21 (stereo not drawn) [Example 69] | 244 | Weight of prostate [3]: 21 ± 2 mg/body weight 100 g |
| CC(=O)SCC(C)(C)C1Nc2ccc([N+](=O)[O-])cc2C2C=CCC21 (stereo not drawn) [Example 76, thioacetic acid S-[2-methyl-2-(8-nitro-3a,4,5,9b-tetrahydro-3H-cyclopenta[c]quinolin-4-yl)propyl]ester] | 131 |  |
| CC(C)(O)C(=O)Nc1ccc([N+](=O)[O-])c(C(F)(F)F)c1 [Hydroxyflutamide, hydroxyflutamide, reference compound] | 100 |  |
